Here are results for two compounds from ChEMBL document CHEMBL2151024, “Synthesis and Biological Evaluation of a Biotinylated Paclitaxel With an Extra-Long Chain Spacer Arm” (ACS Med Chem Lett, 2012).

Activity calls are given as the source filed them. The calls are words filed in the database; no cut-off is given here.

In one assay the target is Tubulin (Sus scrofa, UniProt P02554+P02550). Put plainly: Induction of porcine brain tubulin polymerization after 20 mins by Bradford assay.
Assay [1] in a line: Stabilization of microtubule by fluorescence microscopy.
A short description of assay [2]: Stabilization of microtubule using Cy3-streptavidin-tagged compound by fluorescence microscopy.

By EC50 is commonly meant the concentration that produces a half-maximal response. Lower therefore signals greater potency. Compound `CC(=O)O[C@H]1C(=O)[C@@]2(C)[C@H]([C@H](OC(=O)c3ccccc3)[C@]3(O)C[C@H](OC(=O)[C@H](O)[C@@H](NC(=O)c4ccccc4)c4ccccc4)C(C)=C1C3(C)C)[C@]1(OC(C)=O)CO[C@@H]1C[C@@H]2O` [PACLITAXEL] returned a half-maximal effective concentration (EC50) at Tubulin of 520 nM. The result in assay [1] was Active.
In turn, `CC(=O)O[C@H]1C(=O)[C@]2(C)[C@@H](OC(=O)CCNC(=O)CCCCCNC(=O)CCCCCNC(=O)CCCC[C@@H]3SC[C@@H]4NC(=O)N[C@@H]43)C[C@H]3OC[C@@]3(OC(C)=O)[C@H]2[C@H](OC(=O)c2ccccc2)[C@]2(O)C[C@H](OC(=O)[C@H](O)[C@@H](NC(=O)c3ccccc3)c3ccccc3)C(C)=C1C2(C)C` yielded an EC50 at Tubulin of 680 nM. Moreover, the outcome in assay [1] and in assay [2] was Active.
